Experimental data from US6995148B2, “Adenosine cyclic ketals: novel adenosine analogues for pharmacotherapy” (University of Pittsburgh, priority 2001, dated 2006).

Legend:
A2A receptors = settings: cited from earlier work
[1] = tested on: patients with acute anterior myocardial infarction; settings: three-hour intravenous infusion; cited from earlier work
anesthetized rat = assay: Hemodynamic effects (MABP and heart rate) of intravenous bolus in anesthetized rat; assay type: in vivo; settings: bolus injection of 0.2 mg/kg
Description: Preliminary experiments were conducted to evaluate the hemodynamic effects of nonamethonium ACK. Adult male Sprague-Dawley rats utilized in these studies were purchased from Charles River Laboratories (Wilmington, Mass.) and maintained in the University of Pittsburgh Animal Facility. Rats were provided free access to Prolab Isopro RMH 3000 rodent diet (PMI Nutritional Intl., Richmond, Ind.) a nd tap water. The rats weighed approximately 300 grams at the time of study.
Rats were anesthetized with Inactin (100 mg/kg, intraperitoneally or i.p.) and placed on a Deltaphase Isothermal Pad (Braintree Scientific, Inc.; Braintree, Mass.). Body temperature was monitored with a digital rectal probe thermometer (Physioltemp Instruments, Inc.; Clifton, N.J.) and maintained at 37° C. by adjusting a heat lamp above the animal. The trachea was cannulated with polyethylene (PE)- 240 to maintain airway patency, a PE-50 catheter was inserted into the left jugular vein and an intravenous infusion of 0.9% saline was initiated at 80 μl/min. A left carotid artery catheter (PE-50) was inserted and was connected to a digital blood pressure analyzer (Micro-Med; Louisville, Ky.) for continuous measurement of mean arterial blood pressure (MABP) and heart rate. The digital blood pressure analyzer was set to time-average MABP and heart rate at one-minute (slow speed) or two-second (high speed) intervals.
After a 30 minute post-operation rest period, the rats received bolus injections of either adenosine or nonamethonium ACK. Some rats were pretreated with a bolus of 1,3-dipropyl-p-sulfophenylxanthine (DPSPX, a well-characterized adenosine receptor antagonist) followed by a constant rate infusion of DPSPX at 0.15 mg/80 μl/min. It has previously been shown that this dosing regimen with DPSPX effectively blocks adenosine receptors in the rat in vivo.

For `CCNC(=O)[C@H]1O[C@@H](n2cnc3c(N)nc(NCCc4ccc(CCC(=O)O)cc4)nc32)[C@H](O)[C@@H]1O` [CGS 21680, 2-[4-[(2-carboxyethyl)phenyl]ethylamino]-5′-N-ethylcarboxamidoadenosine], the “affinity for A2A receptors” value (A2A receptors) is given as “high affinity”.

In the case of `Nc1ncnc2c1ncn2[C@@H]1O[C@H](CO)[C@@H](O)[C@H]1O` [adenosine], the “reduction of infarct size” value [1] is given as 66%, the “time to recovery of MABP” value (anesthetized rat) is given as “approximately 500 seconds” and the “time to recovery of heart rate” value (anesthetized rat) is given as “approximately 100 seconds”. The “reduction of MABP” value (anesthetized rat; FIG. 2A) was 76 mm Hg and the “reduction of heart rate” value (anesthetized rat; FIG. 2B) was 158 beats per minute.
